Test results published in patent US20150306169A1, “METHOD AND COMPOSITIONS FOR SYNCHRONIZING TIME OF INSEMINATION IN GILTS” (JBS UNITED ANIMAL HEALTH II LLC, priority 2012, published 2015).

Tests used:
Format in all cases: in vivo, swine
gilts [1] = experiment: Ovulation monitoring by transrectal ultrasonography, triptorelin gel dose 100-400 mcg at 120 h post-MATRIX (Example 5); conditions: for % of Sows Ovulating: raw average, PTK 2-07
Description: (§1) All gilts were individually fed MATRIX® as a top-dress for 14 or 15 days at the recommended rate of 15 mg/gilt/day. Gilts were withdrawn from MATRIX® feeding (last top-dress in the morning on Day 0) and allocated to each of the following treatments. Controls were vehicle gel treated (vehicle gel without triptorelin) at 120 (+/−2) hours following MATRIX® withdrawal (last top dress). The other gilts were given 100, 200 or 400 mcg triptorelin as the acetate in a methylcellulose gel formulation 120 (+/−2) hours following MATRIX® withdrawal. The four treatments were: • 1. Vehicle gel (VG): vehicle gel without triptorelin at 120 (+/−2) hours after MATRIX® withdrawal. • 2. TG 100: 100 mcg (2 mL 50 mcg/mL) triptorelin gel at 120 (+/−2) hours after MATRIX® withdrawal. • 3. TG 200: 200 mcg (2 mL 100 mcg/mL) triptorelin gel at 120 (+/−2) hours after MATRIX® withdrawal. • 4. TG 400: 400 mcg (2 mL 200 mcg/mL) triptorelin gel at 120 (+/−2) hours after MATRIX® withdrawal.
Ovulation was monitored twice on Day 5 (8 hours and 16 hours post-treatment) and every 8 hours on Day 6 and Day 7 or until ovulation was confirmed or 176 hours following last MATRIX® feeding. The ovulatory status of all gilts was monitored by transrectal ultrasonography. An Aloka 500 ultrasound machine is used for this purpose, with a 7.5 MHz linear array transducer attached to a fixed-angle PVC stabilizing rod to facilitate insertion into the rectum. The transducer and PVC rod are coated with a gynecological lubricant and gently inserted into the rectum until the ovaries can be visualized, one at a time. The diameters of the three largest follicles were recorded (to the nearest 0.1 mm) at each scanning. A gilt was declared to have ovulated when the number of large follicles (≧6.5 mm) fell to less than 3.
(§2) A single 2 mL dose of triptorelin gel or vehicle gel was deposited within approximately 1-2 cm posterior to the cervix with a catheter similar to those used for artificial insemination. The dose was delivered using a standard multi-dose applicator attached to the catheter. A new disposable sheath, which surrounds the catheter, was used for each gilt.

gilts [2] = experiment: Ovulation monitoring by transrectal ultrasonography after triptorelin gel at 96, 120 or 144 h post-MATRIX (Example 1); conditions: raw average, PTK 1-07 (rep 3), 200 mcg T at 120 h post-MATRIX
Description: All gilts were individually fed MATRIX® as a top-dress for 14 days at the recommended rate of 15 mg/gilt/day. Gilts were withdrawn from MATRIX® feeding (last top feed in the morning on Day 0) and allotted to treatments. Controls were treated with a 1.2% methylcellulose gel formulation without triptorelin at 96 hours following MATRIX® withdrawal (last top-dress). The remaining gilts received 200 mcg triptorelin, as the acetate, in a 1.2% methylcellulose gel formulation intravaginally at various times after MATRIX® withdrawal. The four treatments were: 1) vehicle gel (VG) treatment at 96 hours after MATRIX® withdrawal, 2) triptorelin gel (TG) treatment at 96 hours after MATRIX® withdrawal, 3) TG treatment at 120 hours after MATRIX® withdrawal and 4) TG treatment at 144 hours after MATRIX® withdrawal. All gilts were monitored for their estrous and ovulatory status as described below. Gilts included in replicate 1 were selected from terminal line commercial production gilts located in grow/finish barns. Sexual maturity, as indicated by one or more estrous periods, was not verified prior to the start of MATRIX® feeding. Gilts included in replicate 2 were selected from a maternal line gilt population. Sexual maturity was verified by at least one estrous period verified and recorded prior to starting MATRIX® feeding.
The ovulatory status of all gilts was monitored by transrectal ultrasonography. For replicate one, ovulation was monitored two times on Day 5, then three times a day from Day 6 to Day 8. For replicate two, ovulation was monitored three times a day from Day 5 to Day 8. An Aloka 500 ultrasound machine with a 7.5 MHz linear array transducer attached to a fixed-angle PVC stabilizing rod to facilitate insertion into the rectum was used for this purpose. The transducer and PVC rod were coated with a gynecological lubricant and gently inserted into the rectum until the ovaries were visualized, one at a time. The diameters of the three largest follicles were recorded (to the nearest 0.1 mm) at each scanning. A gilt was declared to have ovulated when the number of large follicles (≧6.5 mm) fell to less than 3.
as §2
Data were analyzed using the Mixed Models procedures of SAS. Models included main effects of time of treatment following the last feeding of MATRIX®, replicate, and treatment by replicate interaction. Differences between treatments were tested on least squares means estimates using the T test at P <0.05. Data for analysis were tested for assumptions of data normality.

gilts [3] = experiment: Estrus observation after triptorelin gel (Example 1); conditions: raw average, PTK 1-07 (rep 3); 200 mcg T at 120 h post-MATRIX
Description: All gilts were individually fed MATRIX® as a top-dress for 14 days at the recommended rate of 15 mg/gilt/day. Gilts were withdrawn from MATRIX® feeding (last top feed in the morning on Day 0) and allotted to treatments. Controls were treated with a 1.2% methylcellulose gel formulation without triptorelin at 96 hours following MATRIX® withdrawal (last top-dress). The remaining gilts received 200 mcg triptorelin, as the acetate, in a 1.2% methylcellulose gel formulation intravaginally at various times after MATRIX® withdrawal. The four treatments were: 1) vehicle gel (VG) treatment at 96 hours after MATRIX® withdrawal, 2) triptorelin gel (TG) treatment at 96 hours after MATRIX® withdrawal, 3) TG treatment at 120 hours after MATRIX® withdrawal and 4) TG treatment at 144 hours after MATRIX® withdrawal. All gilts were monitored for their estrous and ovulatory status as described below. Gilts included in replicate 1 were selected from terminal line commercial production gilts located in grow/finish barns. Sexual maturity, as indicated by one or more estrous periods, was not verified prior to the start of MATRIX® feeding. Gilts included in replicate 2 were selected from a maternal line gilt population. Sexual maturity was verified by at least one estrous period verified and recorded prior to starting MATRIX® feeding. […]
Data were analyzed using the Mixed Models procedures of SAS. […]

LH = experiment: Serum LH surge after triptorelin gel (Example 5)
Description: A catheter was inserted non-surgically into the jugular vein (Kraeling et al. 1982) of a subpopulation of gilts in each treatment group (vehicle gel, n=8; 100 mcg triptorelin, n=6; 200 mcg triptorelin, n=7 and 400 mcg triptorelin, n=6). Ten mL blood samples were collected every 15 minutes for one hour prior to treatment, immediately following treatment (0) and at 0.5, 1, 2, 4, 6, 12, 18, 24, 36 and 48 hours after treatment. Blood samples were maintained at 4° C. until centrifuged at 800 x g for 15 minutes within 12 hours of collection. The resulting serum was stored frozen until assayed for LH using validated procedures for pig serum (Kesner et al., 1987 and Kraeling et al., 1982). Onset, duration, and magnitude of the LH surge were analyzed. The LH data were analyzed with the General Linear Models procedure of SAS. Differences between treatments were tested on least squares means estimates using the T test at P<0.05. Onset of the LH surge is when serum LH concentration is greater than or equal to two standard deviations of the mean of the pre-treatment serum LH concentrations. Duration of the LH surge is the period between onset and when serum LH concentration is again less than or equal to two standard deviations of the mean of the pre-treatment serum LH concentrations. Magnitude of the LH surge is the maximum serum LH concentration reached during the LH surge.

gilts [4] = experiment: Estrus observation, triptorelin gel dose study (Example 5); conditions: raw average, PTK 2-07
Description: as §1
For post-treatment estrus detection, gilts were housed in individual pens. Boars were housed in separate rooms, and/or at least 12 m away and downwind. To elicit signs of estrus, a mature boar was walked slowly in the alley in front of the gilts' crates, exposing each test gilt to visual, auditory and olfactory signals from the boar for up to 5 minutes. […]

[5] = 200 mcg T in gel at 120 h post-MATRIX, relative to time of treatment, one gilt with surge

For CC(C)C[C@H](NC(=O)[C@@H](Cc1c[nH]c2ccccc12)NC(=O)[C@H](Cc1ccc(O)cc1)NC(=O)[C@H](CO)NC(=O)[C@H](Cc1c[nH]c2ccccc12)NC(=O)[C@H](Cc1c[nH]cn1)NC(=O)[C@@H]1CCC(=O)N1)C(=O)N[C@@H](CCCNC(=N)N)C(=O)N1CCC[C@H]1C(=O)NCC(N)=O [T, pGlu-His-Trp-Ser-Tyr-D-Trp-Leu-Arg-Pro-Gly-NH2], the “Percentage ovulated by 48 hours” value (gilts [1]; 100 mcg T in gel at 120 h post-MATRIX, catheterized subpopulation n = 6) was 100%, the “Percentage ovulated by 48 hours” value (gilts [1]; 200 mcg T in gel at 120 h post-MATRIX, catheterized subpopulation n = 7) was 100% and the “Percentage ovulated by 48 hours” value (gilts [1]; 400 mcg T in gel at 120 h post-MATRIX, catheterized subpopulation n = 6) was 100%. For the same compound, the “% of Sows Ovulating” value (gilts [1]; 100 mcg T at 120 h post-MATRIX, 128 h post-MATRIX (8 h post-T)) was 0.0%, the “% of Sows Ovulating” value (gilts [1]; 100 mcg T at 120 h post-MATRIX, 136 h post-MATRIX (16 h post-T)) was 5.0% and the “% of Sows Ovulating” value (gilts [1]; 100 mcg T at 120 h post-MATRIX, 144 h post-MATRIX (24 h post-T)) was 20.0%. For the same compound, the “% of Sows Ovulating” value (gilts [1]; 100 mcg T at 120 h post-MATRIX, 152 h post-MATRIX (32 h post-T)) was 30.0%, the “% of Sows Ovulating” value (gilts [1]; 100 mcg T at 120 h post-MATRIX, 160 h post-MATRIX (40 h post-T)) was 60.0% and the “% of Sows Ovulating” value (gilts [1]; 100 mcg T at 120 h post-MATRIX, 168 h post-MATRIX (48 h post-T)) was 95.0%. For the same compound, the “% of Sows Ovulating” value (gilts [1]; 100 mcg T at 120 h post-MATRIX, 176 h post-MATRIX (56 h post-T)) was 100.0%, the “% of Sows Ovulating” value (gilts [1]; 200 mcg T at 120 h post-MATRIX, 128 h post-MATRIX (8 h post-T)) was 0.0% and the “% of Sows Ovulating” value (gilts [1]; 200 mcg T at 120 h post-MATRIX, 136 h post-MATRIX (16 h post-T)) was 0.0%. The “% of Sows Ovulating” value (gilts [1]; 400 mcg T at 120 h post-MATRIX, 128 h post-MATRIX (8 h post-T)) was 4.5%, the “% of Sows Ovulating” value (gilts [1]; 400 mcg T at 120 h post-MATRIX, 136 h post-MATRIX (16 h post-T)) was 9.1% and the “% of Sows Ovulating” value (gilts [1]; 400 mcg T at 120 h post-MATRIX, 168 h post-MATRIX (48 h post-T)) was 100.0%. The “% of Sows Ovulating” value (gilts [1]; 400 mcg T at 120 h post-MATRIX, 176 h post-MATRIX (56 h post-T)) was 100.0%, the “% of Sows Ovulating” value (gilts [2]; 128 h post-MATRIX (8 h post-T)) was 0.0% and the “% of Sows Ovulating” value (gilts [2]; 136 h post-MATRIX (16 h post-T)) was 10.0%. The “% of Sows Ovulating” value (gilts [2]; 144 h post-MATRIX (24 h post-T)) was 30.0%, the “% of Sows Ovulating” value (gilts [2]; 152 h post-MATRIX (32 h post-T)) was 70.0% and the “% of Sows Ovulating” value (gilts [2]; 160 h post-MATRIX (40 h post-T)) was 80.0%. The “% of Sows Ovulating” value (gilts [2]; 168 h post-MATRIX (48 h post-T)) was 90.0%, the “% of Sows Ovulating” value (gilts [2]; 176 h post-MATRIX (56 h post-T)) was 100.0% and the “Estrous Expression (%)” value (gilts [3]) was 100.0%. For the same compound, the “Gilts, which displayed a LH surge” value (LH; 100 mcg T in gel at 120 h post-MATRIX, number of n = 6 catheterized gilts) was 4, the “Onset of LH surge” value (LH; 100 mcg T in gel at 120 h post-MATRIX, relative to time of treatment, LS mean ± SE) was 4 ± 3 and the “Gilts, which displayed a LH surge” value (LH; 200 mcg T in gel at 120 h post-MATRIX, number of n = 7 catheterized gilts) was 1. The “Duration of LH surge” value (LH; 200 mcg T in gel at 120 h post-MATRIX, one gilt with surge) was 18, the “Onset of LH surge” value (LH; [5]) was 0.5 and the Time of maximum LH conc. (LH; [5]) was 4 h. The “Gilts, which displayed a LH surge” value (LH; 400 mcg T in gel at 120 h post-MATRIX, number of n = 6 catheterized gilts) was 5, the “Onset of LH surge” value (LH; 400 mcg T in gel at 120 h post-MATRIX, relative to time of treatment, LS mean ± SE) was 4 ± 4 and the “Estrous Expression (%)” value (gilts [4]; 100 mcg T at 120 h post-MATRIX) was 75.0%. For the same compound, the “Estrous Expression (%)” value (gilts [4]; 200 mcg T at 120 h post-MATRIX) was 81.0%.
